Paper PMC6901946, “Intranasal MMI-0100 Attenuates Aβ1−42- and LPS-Induced Neuroinflammation and Memory Impairments via the MK2 Signaling Pathway” (Frontiers in Immunology, 2019)
Ends that are not written are not given here.

What was measured:
MK2 = biological target: T1, MK2 (Mus musculus, UniProt P49138); assay: Western blotting of pMK2 in hippocampus; assay type: in vivo; settings: Aβ1−42-induced model; Figure 7; n = 5
T1 construct: the protein samples (40 μg per lane) isolated from the hippocampus were separated by SDS-PAGE; from tissue; host or cells: mouse hippocampus
T1 sequence (P49138 whole entry): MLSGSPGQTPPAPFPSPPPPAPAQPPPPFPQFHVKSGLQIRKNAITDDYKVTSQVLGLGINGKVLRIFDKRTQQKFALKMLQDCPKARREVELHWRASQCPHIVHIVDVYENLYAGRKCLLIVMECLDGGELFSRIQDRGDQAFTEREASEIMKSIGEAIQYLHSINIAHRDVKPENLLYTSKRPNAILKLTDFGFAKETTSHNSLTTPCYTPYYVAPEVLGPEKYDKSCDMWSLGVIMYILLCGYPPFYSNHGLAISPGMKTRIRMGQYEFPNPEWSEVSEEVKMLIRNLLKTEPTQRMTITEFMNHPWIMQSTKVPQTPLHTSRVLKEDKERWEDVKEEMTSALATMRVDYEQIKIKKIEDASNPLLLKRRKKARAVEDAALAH
Method: Western blotting was carried out as per the manufacturer's instructions (Bio-Rad Laboratories, Inc). Protein was extracted with RIPA buffer containing protease inhibitor (Gibco; Thermo Fisher Scientific, Inc.). The protein concentration was determined using a BCA protein assay kit (Pierce; Thermo Fisher Scientific, Inc.). Briefly, the protein samples (40 μg per lane) isolated from the hippocampus were separated by SDS-PAGE and electrophoretically transferred onto polyvinylidene fluoride membranes. Membranes were blocked with 5% skimmed milk for 2 h and incubated overnight at 4°C with specific first antibodies. GAPDH was used as a loading control. Subsequently, the membranes were incubated with the corresponding secondary antibodies and the reaction was visualized with chemiluminescence reagents provided with an ECL kit (Thermo) and exposed to a film. The intensity of the blots was quantified with densitometry (Image J 1.49v; National Institutes of Health).

Kunming mice [1] = assay: Novel object recognition (NOR) task; assay type: in vivo, mouse; settings: Aβ1−42 800 pmol i.c.v. 14 days before, tested after 24 h
Method: (§1) MMI-0100 or vehicle was infused into the brain by using a 32-gauge stainless steel syringe needle placed in and projecting 0.5 mm below the tip of the cannula for 2 min. This needle was connected via a PE tube to a 5-μl Hamilton syringe mounted to a Microdrive pump (KD Scientific). To allow the drug to diffuse, the infusion syringe remained in place for 1 min. For the lateral ventricle, injection volume is 2 μl, and for the bilateral hippocampus CA1, injection volume is 0.5 μl/side. After drug administration, each mouse was subjected to behavioral testing immediately. In addition, the selection of the doses was based on the previous reports and our preliminary observations ([24]).
(§2) The behavior experiments were carried out 15 min after i.c.v. injection of MMI-0100, or 2 h after intranasal infusion of MMI-0100. The cytokines were measured 15 min after i.c.v. injection of MMI-0100.
(§3) The procedures for the novel object recognition (NOR) and object location recognition (OLR) tasks were described in our previous report ([23], [30]). The videos for NOR and OLR tasks were shown in Supplementary Material. […] The discrimination index (DI) in the memory retention phase was calculated as the percentage of the time a mouse explored the new object or location over the total time the mouse explored the two objects or locations. […]

IL-6, IL-1β, TNF-α, iNOS = assay: Quantitative PCR of pro-inflammatory factors in hippocampus; assay type: in vivo, mouse; settings: Aβ1−42-induced model; 15 min after i.c.v. MMI-0100; Figure 5; n = 5
Method: Amnesia was caused by Aβ1−42 injection for 14 days or LPS infusion for 3 days; 15 min after injection of MMI-0100 or vehicle, the hippocampus was removed from mice. Real-time RT-PCR was performed according to a previous report ([31]). Total RNA was extracted using Trizol reagent (TaKaRa) and 1 μg of RNA in each sample was reversely transcribed into a single-stranded complementary DNA with the 5X PrimeScript RT Master Mix (TaKaRa) following the manufacturer's instructions. Amplification was carried out in a 25 μl reaction mixture consisting of 12.5 μl of 2X SYBR Premis Ex TaqTM II, 2 μl of cDNA, 1 μl of forward primer, 1 μl of reverse primer, and 8.5 μl of H2O, and was run under the following conditions: 95°C for 30 s, followed by 40 cycles of 95°C for 5 s, 58°C for 30 s, and 72°C for 30 s. The primer pair P1/P2 was used in the RT-PCR assay to identify the expression level of TNF-α, IL-6, IL-1β, and iNOS gene in vehicle + vehicle-, Aβ1−42 + vehicle-, Aβ1−42 + MMI-0100-, LPS + vehicle-, and LPS + MMI-0100-treated groups.

TNF-α, IL-1β, IL-6 = assay: ELISA of pro-inflammatory cytokines in hippocampus; assay type: in vivo, mouse; settings: Aβ1−42-induced model, Figure 6, n = 5
Method: Total proteins from the hippocampus of mice in each group were extracted with RIPA lysis buffer containing protease inhibitor (Gibco, Thermo Fisher Scientific, Inc.). Total proteins were determined using a bicinchoninic acid protein assay kit (Sangon Biotech Co., Ltd.). IL-1β, IL-6, and TNF-α in the hippocampus tissue were measured using ELISA kits (cat number: E-EL-M0049 for TNF-α, cat number: E-EL-M0044 for IL-6, cat number: E-EL-M0037 for IL-1β, Elabscience), according to the manufacturer's instructions.

Kunming mice [2] = assay: Object location recognition (OLR) task; assay type: in vivo, mouse; settings: Aβ1−42 800 pmol i.c.v. 14 days before, tested after 24 h
Method: as §1, §2, §3

in vitro = settings: mouse, brain homogenates
Method: The peptide levels after incubation were expressed as percent parent remaining. Points indicate the means and vertical lines indicate the SEM of 3 separate experiments.

[3] = intranasal experiment (Figure 10), MMI-0100 25 nmol intranasal or vehicle

Substance	phosphorylation of MK2 (pMK2/tMK2) in hippocampus (MK2)	discrimination index (DI), NOR (Kunming mice [1]; Figure 2A, MMI-0100 5 nmol i.c.v. or vehicle, chance level 50%)	discrimination index (DI), NOR (Kunming mice [1]; [3])	mRNA level of IL-6, IL-1β, TNF-α and iNOS in hippocampus (IL-6, IL-1β, TNF-α, iNOS)	protein levels of IL-6, IL-1β and TNF-α in hippocampus (TNF-α, IL-1β, IL-6)	discrimination index (DI), OLR (Kunming mice [2]; Figure 3A, MMI-0100 5 nmol i.c.v. or vehicle, chance level 50%)	discrimination index (DI), OLR (Kunming mice [2]; [3])	half-life (in vitro)
Aβ1−42: Aβ1−42 peptide purchased from Hangzhou Chinese Peptide Biochemical Company, oligomer used to induce AD model	significantly up-regulated	50.96%	50.98%	dramatically increased	higher	48.04%	46.31%	
YARAAARQARAKALARQLGVAA [MMI-0100]								~2.69 h
